From PMC7413254 (Nature Communications, 2020)

Assays:
Format in all cases: cell-based
PfCRT^Dd2 [1] = target: T1, PfCRT^Dd2 (Plasmodium falciparum, UniProt Q9N623, A220S/I356T/K76T/M74I/N326S/N75E/Q271E/R371I); test: [3H]CQ uptake into Xenopus oocytes, cis-inhibition by unlabelled solute; settings: PfCRTDd2 oocytes, background [3H]CQ accumulation subtracted, normalised to oocyte type control
Outline: (§1)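 Each treatment used ten oocytes, repeated in at least four experiments on different days with oocytes from different frogs. Conditions: ND96 pH 5.5, 27.5 °C, 1.5 h; read-out by scintillation counting.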

PfCRT^Ecu1110 [2] = target: T2, PfCRT^Ecu1110 (Plasmodium falciparum, UniProt Q9N623, A220S/I356L/K76T/N326D); test: as above; settings: for PfCRT-mediated [3H]CQ transport, cis-inhibition (% PfCRTEcu1110 control): PfCRTEcu1110 oocytes, background [3H]CQ accumulation subtracted, normalised to oocyte type control
Outline: as §1

PfCRT^3D7 = PfCRT^3D7 (Plasmodium falciparum, UniProt Q8IBZ9); test: cell-based; settings: PfCRT3D7 oocytes, normalised to oocyte type control
Outline: (§2)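 Oocytes (ten per treatment, ≥4 independent frogs/days) were preloaded by injecting VF-6 in 25 nL ND96 at pH 5.0, 5.5, 6.0 or 7.0, or Na^+-free choline buffer, then uptake run 1.5 h, 27.5 °C, ND96 pH 5.5 by default. Internal concentrations assumed ~400 nL oocyte volume.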

PfCRT^Dd2 [3] = target: T1, PfCRT^Dd2; test: cell-based; settings: for PfCRT-mediated [3H]CQ transport, trans-stimulation (% PfCRTDd2 control): PfCRTDd2 oocytes, normalised to oocyte type control; for [3H]CQ transport (% PfCRTDd2 control), trans-stimulation, PfCRTDd2: PfCRT-mediated component (background subtracted), mean ± SEM, SEM
Outline: as §2

PfCRT^Ecu1110 [4] = target: T2, PfCRT^Ecu1110; test: cell-based; settings: for PfCRT-mediated [3H]CQ transport, trans-stimulation (% PfCRTEcu1110 control): PfCRTEcu1110 oocytes, normalised to oocyte type control; for [3H]CQ transport (% PfCRTDd2 control), trans-stimulation, PfCRTEcu1110: PfCRT-mediated component (background subtracted), sheet title says normalised to PfCRTDd2 control, mean ± SEM, SEM
Outline: as §2

[5] = [test solute]i = 5 mM (intracellular)
[6] = [test solute]i = 45 mM (intracellular; 30 mM for some solutes due to solubility)
[7] = [test solute]i = 5 mM (injected)
[8] = [test solute]i = 45 mM (30 mM for some solutes due to solubility)

PfCRT^3D7, sequence (Q8IBZ9 59-398): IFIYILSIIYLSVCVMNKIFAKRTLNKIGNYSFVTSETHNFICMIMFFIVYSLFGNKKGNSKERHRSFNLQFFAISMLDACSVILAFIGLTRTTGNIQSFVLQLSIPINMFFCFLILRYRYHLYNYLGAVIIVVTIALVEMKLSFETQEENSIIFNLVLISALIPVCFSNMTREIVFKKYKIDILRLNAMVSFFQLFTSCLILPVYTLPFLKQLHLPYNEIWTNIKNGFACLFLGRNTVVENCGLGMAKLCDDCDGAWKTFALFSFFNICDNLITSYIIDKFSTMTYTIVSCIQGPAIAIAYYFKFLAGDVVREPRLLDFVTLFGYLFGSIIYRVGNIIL
T1 sequence (Q9N623 whole entry A220S/I356T/K76T/M74I/N326S/N75E/Q271E/R371I): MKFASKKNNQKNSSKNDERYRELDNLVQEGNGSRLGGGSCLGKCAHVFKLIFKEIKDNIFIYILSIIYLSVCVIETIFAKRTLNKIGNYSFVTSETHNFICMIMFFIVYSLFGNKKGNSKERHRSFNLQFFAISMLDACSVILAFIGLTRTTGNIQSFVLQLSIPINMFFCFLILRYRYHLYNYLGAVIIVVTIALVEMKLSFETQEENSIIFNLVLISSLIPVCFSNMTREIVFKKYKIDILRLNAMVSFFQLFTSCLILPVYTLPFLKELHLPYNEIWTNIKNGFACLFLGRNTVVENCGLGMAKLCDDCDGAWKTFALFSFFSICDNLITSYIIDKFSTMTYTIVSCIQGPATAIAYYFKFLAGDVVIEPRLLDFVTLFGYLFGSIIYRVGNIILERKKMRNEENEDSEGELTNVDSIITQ
T2 sequence (Q9N623 whole entry A220S/I356L/K76T/N326D): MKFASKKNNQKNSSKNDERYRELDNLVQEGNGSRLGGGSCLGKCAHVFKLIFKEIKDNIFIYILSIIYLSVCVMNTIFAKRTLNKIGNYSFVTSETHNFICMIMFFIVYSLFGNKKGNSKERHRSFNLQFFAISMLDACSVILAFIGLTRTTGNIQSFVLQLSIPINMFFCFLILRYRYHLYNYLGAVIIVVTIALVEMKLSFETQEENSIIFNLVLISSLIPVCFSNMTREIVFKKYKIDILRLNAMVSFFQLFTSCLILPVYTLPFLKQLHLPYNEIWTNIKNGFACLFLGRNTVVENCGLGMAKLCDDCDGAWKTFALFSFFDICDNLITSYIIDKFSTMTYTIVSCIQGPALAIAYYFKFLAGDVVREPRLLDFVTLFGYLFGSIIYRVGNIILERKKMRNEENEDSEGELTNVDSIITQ

Row | Substance | PfCRT-mediated [3H]CQ transport, cis-inhibition (% PfCRTDd2 control) (PfCRT^Dd2 [1]; [test solute] = 0.5 mM) | PfCRT-mediated [3H]CQ transport, cis-inhibition (% PfCRTDd2 control) (PfCRT^Dd2 [1]; [test solute] = 1 mM) | PfCRT-mediated [3H]CQ transport, cis-inhibition (% PfCRTDd2 control) (PfCRT^Dd2 [1]; [test solute] = 2 mM) | PfCRT-mediated [3H]CQ transport, cis-inhibition (% PfCRTEcu1110 control) (PfCRT^Ecu1110 [2]; [test solute] = 0.5 mM) | PfCRT-mediated [3H]CQ transport, cis-inhibition (% PfCRTEcu1110 control) (PfCRT^Ecu1110 [2]; [test solute] = 1 mM) | PfCRT-mediated [3H]CQ transport, cis-inhibition (% PfCRTEcu1110 control) (PfCRT^Ecu1110 [2]; [test solute] = 2 mM) | PfCRT-mediated [3H]CQ transport, trans-stimulation (% PfCRT3D7 control) (PfCRT^3D7; [5]) | PfCRT-mediated [3H]CQ transport, trans-stimulation (% PfCRT3D7 control) (PfCRT^3D7; [6]) | PfCRT-mediated [3H]CQ transport, trans-stimulation (% PfCRTDd2 control) (PfCRT^Dd2 [3]; [5]) | PfCRT-mediated [3H]CQ transport, trans-stimulation (% PfCRTDd2 control) (PfCRT^Dd2 [3]; [6]) | PfCRT-mediated [3H]CQ transport, trans-stimulation (% PfCRTEcu1110 control) (PfCRT^Ecu1110 [4]; [5]) | PfCRT-mediated [3H]CQ transport, trans-stimulation (% PfCRTEcu1110 control) (PfCRT^Ecu1110 [4]; [6]) | [3H]CQ transport (% PfCRTEcu1110 control), cis-inhibition, PfCRTEcu1110 (PfCRT^Ecu1110 [2]; cis-inhibition, [test solute] = 2 mM, PfCRT-mediated component (background subtracted), sheet title says normalised to PfCRTDd2 control, mean ± SEM, SEM) | [3H]CQ transport (% PfCRTDd2 control), trans-stimulation, PfCRTDd2 (PfCRT^Dd2 [3]; [7]) | [3H]CQ transport (% PfCRTDd2 control), trans-stimulation, PfCRTDd2 (PfCRT^Dd2 [3]; [8]) | [3H]CQ transport (% PfCRTDd2 control), trans-stimulation, PfCRTEcu1110 (PfCRT^Ecu1110 [4]; [7]) | [3H]CQ transport (% PfCRTDd2 control), trans-stimulation, PfCRTEcu1110 (PfCRT^Ecu1110 [4]; [8])
1 | VHLTPEEK [VK-8] | 69 ± 3.1 % PfCRTDd2 control | 63 ± 5.2 % PfCRTDd2 control | 25 ± 0.3 % PfCRTDd2 control | 64 ± 2.7 % PfCRTEcu1110 control | 49 ± 3.1 % PfCRTEcu1110 control | 41 ± 2.3 % PfCRTEcu1110 control | 132 ± 3.2 % PfCRT3D7 control | 166 ± 4.2 % PfCRT3D7 control | 100 ± 3.4 % PfCRTDd2 control | 98 ± 2.3 % PfCRTDd2 control | 98 ± 2.9 % PfCRTEcu1110 control | 100 ± 4.2 % PfCRTEcu1110 control | – | – | – | – | –
2 | VLSPAD [VD-6] | 47 ± 1.8 % PfCRTDd2 control | 28 ± 1.1 % PfCRTDd2 control | 29 ± 1.0 % PfCRTDd2 control | 58 ± 3.5 % PfCRTEcu1110 control | 48 ± 3.2 % PfCRTEcu1110 control | 39 ± 0.4 % PfCRTEcu1110 control | 97 ± 4.2 % PfCRT3D7 control | 95 ± 4.1 % PfCRT3D7 control | 101 ± 3.6 % PfCRTDd2 control | 98 ± 3.3 % PfCRTDd2 control | 98 ± 3.2 % PfCRTEcu1110 control | 98 ± 3.3 % PfCRTEcu1110 control | 12 ± 0.01 % PfCRTEcu1110 control | 101 ± 3.6 % PfCRTDd2 control | 98 ± 3.3 % PfCRTDd2 control | 30 ± 1.3 % PfCRTEcu1110 control | 30 ± 1.4 % PfCRTEcu1110 control
3 | VVYPWTQR [VR-8] | 40 ± 3.2 % PfCRTDd2 control | 22 ± 1.1 % PfCRTDd2 control | 11 ± 0.8 % PfCRTDd2 control | 42 ± 2.6 % PfCRTEcu1110 control | 32 ± 1.9 % PfCRTEcu1110 control | 21 ± 1.4 % PfCRTEcu1110 control | 96 ± 2.8 % PfCRT3D7 control | 98 ± 2.9 % PfCRT3D7 control | 96 ± 1.4 % PfCRTDd2 control | 95 ± 1.5 % PfCRTDd2 control | 97 ± 1.8 % PfCRTEcu1110 control | 98 ± 3.7 % PfCRTEcu1110 control | – | – | – | – | –
